In US20200255415A1, “TETRASUBSTITUTED ALKENE COMPOUNDS AND THEIR USE FOR THE TREATMENT OF BREAST CANCER” (Eisai R&D Management Co., Ltd., priority 2016, published 2020):

Biological target: T1, human CYP3A4 (Homo sapiens, UniProt P08684)
T1 construct: human CYP3A4 using liver microsomes (0.1 mg/mL); from tissue; host or cells: liver microsomes
Experiment: Time-dependent inhibition assay (IC50 shift), liver microsomes
Type: in vitro ADME
Conditions: IC50 shift; human liver microsomes, 30 min pre-incubation, midazolam probe
Experimental: One of these approaches uses multiple test compound concentrations at a single incubation time, e.g. the “IC50 shift” approach. In an IC50 shift experiment, the IC50 is determined for a CYP marker activity before and after the test compound has been incubated with enzyme and the co-factor nicotinamide adenine dinucleotide phosphate (NADPH) for a set preincubation time (Grimm et al, 2009).
The IC50 shift approach was used to determine whether compounds are time-dependent inhibitors of human CYP3A4 using liver microsomes (0.1 mg/mL). A 30-minute pre-incubation time point was selected, where compounds (9 concentrations, 0 to 30 μmol/L) are incubated at 37° C. in presence and absence of 1 mmol/L NADPH. Following the pre-incubation period, 5 μmol/L midazolam (the probe substrate) was added and formation of hydroxymidazolam was measured by high-performance liquid chromatography-mass spectrometry (LC-MS/MS) analysis following a 5 minute incubation period. Any decrease in the formation of hydroxymidazolam, in peak area ratios to vehicle control, was used to calculate three IC50 values (0 min pre-incubation, 30 min pre-incubation with NADPH, and 30 min pre-incubation without NADPH). […] Assays were performed in duplicate, and mifepristone was used as positive control. In Table 3, “Yes” indicates a TDI shift greater than or equal to 3. “No” indicates a TDI shift greater than or equal to 1 and less than 3.
The IC50 shift approach was also used to determine whether Compound 69 of PCT International Application Publication No. WO/2016/196346 is a time-dependent inhibitor of human CYP3A4 using liver microsomes. Similar to the experimental design described above, a 30-minute pre-incubation time point was selected. Minor variations to the method described above were that Compound 69 of PCT International Application Publication No. WO/2016/196346 was tested at 8 concentrations (0 to 10 μmol/L). Following the pre-incubation period, 3 μmol/L midazolam was added and formation of hydroxymidazolam was measured following a 2 minute incubation period. Since under these experimental conditions, the formation of hydroxymidazolam followed first order kinetics (considered as a linear process), these changes in assay design are not expected to impact the IC50 determinations. In parallel, the IC50 shift assay was also performed with 15.6 μmol/L testosterone (0.05 mg/mL liver microsomes, 10 minute incubation) as second probe substrate. Assays for both probe substrates were performed in triplicate, and mifepristone was used as positive control.

T1 sequence (P08684 whole entry): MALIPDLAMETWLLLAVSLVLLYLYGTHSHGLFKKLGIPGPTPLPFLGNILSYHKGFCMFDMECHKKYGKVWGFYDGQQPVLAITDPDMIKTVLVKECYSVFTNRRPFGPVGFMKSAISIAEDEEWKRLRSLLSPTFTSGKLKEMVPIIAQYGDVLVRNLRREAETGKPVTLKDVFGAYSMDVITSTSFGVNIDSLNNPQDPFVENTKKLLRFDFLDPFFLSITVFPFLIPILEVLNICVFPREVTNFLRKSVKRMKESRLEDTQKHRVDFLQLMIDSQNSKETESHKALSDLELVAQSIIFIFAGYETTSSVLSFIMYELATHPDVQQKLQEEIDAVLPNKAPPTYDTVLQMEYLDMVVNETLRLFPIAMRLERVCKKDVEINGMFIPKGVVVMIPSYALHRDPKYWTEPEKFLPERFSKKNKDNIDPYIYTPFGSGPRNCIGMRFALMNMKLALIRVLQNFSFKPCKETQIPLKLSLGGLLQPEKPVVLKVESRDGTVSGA

SMILES	CYP3A4 TDI
CN(C)C(=O)CCCNCCOc1ccc(/C(=C(/CC(F)(F)F)c2ccccc2)c2ccc3[nH]nc(F)c3c2)cn1 [Compound 2, (Z)-N,N-dimethyl-4-((2-((5-(4,4,4-trifluoro-1-(3-fluoro-1H-indazol-5-yl)-2-phenylbut-1-en-1-yl)pyridin-2-yl)oxy)ethyl)amino)butanamide]	Yes (“Yes” indicates a TDI shift greater than or equal to 3)
O=C(/C=C/CNCCOc1ccc(/C(=C(/CC(F)(F)F)c2ccccc2)c2ccc3[nH]nc(F)c3c2)cn1)NCCO [Compound 7, (E)-N-(2-hydroxyethyl)-4-((2-((5-((Z)-4,4,4-trifluoro-1-(3-fluoro-1H-indazol-5-yl)-2-phenylbut-1-en-1-yl)pyridin-2-yl)oxy)ethyl)amino)but-2-enamide]	No (“No” indicates a TDI shift greater than or equal to 1 and less than 3)
CNC(=O)/C=C/CNCCOc1ccc(/C(=C(/CC(F)(F)F)c2ccccc2)c2ccc3[nH]ncc3c2)cn1 [Compound 9, (E)-N-methyl-4-((2-((5-((Z)-4,4,4-trifluoro-1-(1H-indazol-5-yl)-2-phenylbut-1-en-1-yl)pyridin-2-yl)oxy)ethyl)amino)but-2-enamide]	Yes (“Yes” indicates a TDI shift greater than or equal to 3)
CNC(=O)/C=C/CNCCOc1ccc(/C(=C(/CC(F)(F)F)c2ccccc2)c2ccc3[nH]ncc3c2)cc1 [Compound 10, (E)-N-methyl-4-((2-(4-((E)-4,4,4-trifluoro-1-(1H-indazol-5-yl)-2-phenylbut-1-en-1-yl)phenoxy)ethyl)amino)but-2-enamide]	Yes (“Yes” indicates a TDI shift greater than or equal to 3)
Cl.O=C(/C=C/CNCCOc1ccc(/C(=C(/CC(F)(F)F)c2ccccc2)c2ccc3[nH]nc(F)c3c2)cc1)N1CCCC1 [Compound 13, (E)-1-(pyrrolidin-1-yl)-4-((2-(4-((E)-4,4,4-trifluoro-1-(3-fluoro-1H-indazol-5-yl)-2-phenylbut-1-en-1-yl)phenoxy)ethyl)amino)but-2-en-1-one]	No (“No” indicates a TDI shift greater than or equal to 1 and less than 3)
Cl.O=C(/C=C/CNCCOc1ccc(/C(=C(/CC(F)(F)F)c2ccccc2)c2ccc3[nH]nc(F)c3c2)cn1)N1CCCC1 [Compound 15]	No (“No” indicates a TDI shift greater than or equal to 1 and less than 3)
Cl.O=C(/C=C/CNCCOc1ccc(/C(=C(/CC(F)(F)F)c2ccccc2)c2ccc3[nH]ncc3c2)cn1)N1CCCC1 [Compound 16, (E)-1-(pyrrolidin-1-yl)-4-((2-((5-((Z)-4,4,4-trifluoro-1-(1H-indazol-5-yl)-2-phenylbut-1-en-1-yl)pyridin-2-yl)oxy)ethyl)amino)but-2-en-1-one]	Yes (“Yes” indicates a TDI shift greater than or equal to 3)
Cl.O=C(/C=C/CNCCOc1ccc(/C(=C(/CC(F)(F)F)c2ccccc2)c2ccc3[nH]nc(F)c3c2)cc1)N1CCOCC1 [Compound 17]	No (“No” indicates a TDI shift greater than or equal to 1 and less than 3)
Cl.[2H]C([2H])([2H])N(C(=O)/C=C/CNCCOc1ccc(/C(=C(/CC(F)(F)F)c2ccccc2)c2ccc3[nH]ncc3c2)cc1)C([2H])([2H])[2H] [Compound 23]	Yes (“Yes” indicates a TDI shift greater than or equal to 3)
CC/C(=C(/c1ccc(OCCNC/C=C/C(=O)NC)cc1)c1ccc2[nH]nc(F)c2c1)c1ccccc1.Cl [Compound 26, (E)-4-((2-(4-((E)-1-(3-fluoro-1H-indazol-5-yl)-2-phenylbut-1-en-1-yl)phenoxy)ethyl)amino)-N-methylbut-2-enamide]	No (“No” indicates a TDI shift greater than or equal to 1 and less than 3)
CC/C(=C(/c1ccc(OCCNC/C=C/C(=O)NC)nc1)c1ccc2[nH]nc(F)c2c1)c1ccccc1.Cl [Compound 27, (E)-4-((2-((5-((Z)-1-(3-fluoro-1H-indazol-5-yl)-2-phenylbut-1-en-1-yl)pyridin-2-yl)oxy)ethyl)amino)-N-methylbut-2-enamide]	Yes (“Yes” indicates a TDI shift greater than or equal to 3)
CC/C(=C(/c1ccc(OCCNC/C=C/C(=O)N2CCCC2)cc1)c1ccc2[nH]nc(F)c2c1)c1ccccc1.Cl [Compound 29, (E)-4-((2-(4-((E)-1-(3-fluoro-1H-indazol-5-yl)-2-phenylbut-1-en-1-yl)phenoxy)ethyl)amino)-1-(pyrrolidin-1-yl)but-2-en-1-one]	No (“No” indicates a TDI shift greater than or equal to 1 and less than 3)
CC/C(=C(/c1ccc(OCCNC/C=C/C(=O)N2CCCC2)nc1)c1ccc2[nH]nc(F)c2c1)c1ccccc1.Cl [Compound 30]	No (“No” indicates a TDI shift greater than or equal to 1 and less than 3)
CNC(=O)/C=C/CNCCOc1ccc(/C(=C(\c2ccccc2)C2CCC2)c2ccc3[nH]nc(F)c3c2)cc1.Cl [Compound 31, (E)-4-((2-(4-((E)-2-cyclobutyl-1-(3-fluoro-1H-indazol-5-yl)-2-phenylvinyl)phenoxy)ethyl)amino)-N-methylbut-2-enamide]	Yes (“Yes” indicates a TDI shift greater than or equal to 3)
CNC(=O)/C=C/CNCCOc1ccc(/C(=C(\c2ccccc2)C2CCC2)c2ccc3[nH]nc(F)c3c2)cn1.Cl [Compound 32]	Yes (“Yes” indicates a TDI shift greater than or equal to 3)
CNC(=O)/C=C/CNCCOc1ccc(/C(=C(\c2ccccc2)C2CCC2)c2ccc3[nH]ncc3c2)cn1.Cl [Compound 33, (E)-4-((2-((5-((Z)-2-cyclobutyl-1-(1H-indazol-5-yl)-2-phenylvinyl)pyridin-2-yl)oxy)ethyl)amino)-N-methylbut-2-enamide]	Yes (“Yes” indicates a TDI shift greater than or equal to 3)
O=C(/C=C/CNCCOc1ccc(/C(=C(\c2ccccc2)C2CCC2)c2ccc3[nH]nc(F)c3c2)cc1)N1CCCC1 [Compound 34]	Yes (“Yes” indicates a TDI shift greater than or equal to 3)
Cl.O=C(/C=C/CNCCOc1ccc(/C(=C(\c2ccccc2)C2CCC2)c2ccc3[nH]nc(F)c3c2)cn1)N1CCCC1 [Compound 36, (E)-4-((2-((5-((Z)-2-cyclobutyl-1-(3-fluoro-1H-indazol-5-yl)-2-phenylvinyl)pyridin-2-yl)oxy)ethyl)amino)-1-(pyrrolidin-1-yl)but-2-en-1-one]	Yes (“Yes” indicates a TDI shift greater than or equal to 3)
O=C(/C=C/CNCCOc1ccc(/C(=C(\c2ccccc2)C2CCC2)c2ccc3[nH]ncc3c2)cn1)N1CCCC1 [Compound 37]	Yes (“Yes” indicates a TDI shift greater than or equal to 3)
CNC(=O)CCCNCCOc1ccc(/C(=C(/CC(F)(F)F)c2ccccc2)c2ccc3[nH]ncc3c2)cc1.Cl [Compound 38, (E)-N-methyl-4-((2-(4-(4,4,4-trifluoro-1-(1H-indazol-5-yl)-2-phenylbut-1-en-1-yl)phenoxy)ethyl)amino)butanamide]	Yes (“Yes” indicates a TDI shift greater than or equal to 3)
CNC(=O)CCCNCCOc1ccc(/C(=C(/CC(F)(F)F)c2ccccc2)c2ccc3[nH]nc(F)c3c2)cc1.Cl [Compound 39, (E)-N-methyl-4-((2-(4-(4,4,4-trifluoro-1-(3-fluoro-1H-Indazol-5-yl)-2-phenylbut-1-en-1-yl)phenoxy)ethyl)amino)butanamide]	No (“No” indicates a TDI shift greater than or equal to 1 and less than 3)
